Source: ChEMBL document CHEMBL1201862, “PubChem BioAssay data set” (2004)
Calls of active or inactive are those of the source.

Legend:
[1] = biological target: T1, DNA repair protein RAD52 homolog (Homo sapiens, UniProt P43351); format: functional, biochemical
T1 sequence (P43351 whole entry): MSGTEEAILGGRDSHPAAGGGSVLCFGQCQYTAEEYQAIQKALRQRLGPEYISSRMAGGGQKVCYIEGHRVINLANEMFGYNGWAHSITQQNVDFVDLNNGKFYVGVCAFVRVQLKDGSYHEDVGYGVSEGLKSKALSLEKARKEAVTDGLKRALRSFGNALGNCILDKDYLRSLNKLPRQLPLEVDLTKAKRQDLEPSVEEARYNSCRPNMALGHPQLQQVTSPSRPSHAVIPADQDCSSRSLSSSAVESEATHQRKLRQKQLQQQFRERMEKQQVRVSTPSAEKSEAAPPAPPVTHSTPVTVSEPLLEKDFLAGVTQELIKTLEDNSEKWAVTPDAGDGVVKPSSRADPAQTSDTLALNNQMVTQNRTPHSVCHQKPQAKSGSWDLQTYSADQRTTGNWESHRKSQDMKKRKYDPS

[2] = biological target: T2, Adenosylmethionine-8-amino-7-oxononanoate aminotransferase (Mycobacterium tuberculosis, UniProt P9WQ81); assay: Mycobacterium tuberculosis BioA enzyme inhibitor Measured in Biochemical System Using Plate Reader - 2163-02_Inhibitor_Dose_CherryPick_Activity.; format: functional, Mycobacterium tuberculosis UT205
T2 sequence (P9WQ81 whole entry): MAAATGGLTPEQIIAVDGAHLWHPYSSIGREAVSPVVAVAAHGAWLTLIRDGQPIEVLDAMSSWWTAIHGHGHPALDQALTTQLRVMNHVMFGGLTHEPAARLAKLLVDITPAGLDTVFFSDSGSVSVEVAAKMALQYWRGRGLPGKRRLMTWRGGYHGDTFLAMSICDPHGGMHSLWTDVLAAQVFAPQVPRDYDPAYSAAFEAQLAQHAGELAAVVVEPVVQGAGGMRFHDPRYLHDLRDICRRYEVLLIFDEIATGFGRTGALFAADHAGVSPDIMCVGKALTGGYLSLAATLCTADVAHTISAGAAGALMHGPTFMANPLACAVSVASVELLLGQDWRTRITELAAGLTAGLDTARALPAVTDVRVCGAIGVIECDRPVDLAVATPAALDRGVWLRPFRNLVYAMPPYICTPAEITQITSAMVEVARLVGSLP

[3] = inhibitors of clade B AD8 Env fusion, dose response, cell-based, cherry-pick (AID 652062); format: functional;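 note: luciferase signal from cell-cell fusion driven by HIV-1 clade B AD8 Env; potency is for inhibitors of fusion seen as a drop in luminescence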
[4] = inhibitors of HIV Env-driven cell fusion, dose response, cherry-pick (AID 652057); format: functional, cell-based
[5] = off-target signal loss in HeLa-CEM21 co-culture – HeLa F-luc CTL cells, cherry-picked, counter-screen for HIV-1 Env fusion inhibitor project, dose response (AID 652040); format: functional, cell-based;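 note: potency for signal decrease marking cytotoxic or nonspecific inhibition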
[6] = ZM109 Env clade C HIV-1 fusion inhibitors, dose response, HeLa effector, CEM target cells, luciferase, cherry-pick (AID 652058); format: functional, cell-based
[7] = biological target: T3, Long-chain-fatty-acid--AMP ligase FadD28 (Mycobacterium tuberculosis, UniProt P9WQ59); assay: Fluorescence polarization aasay to screen for inhibitors that compete for the binding of FadD28 to a bisubstrate Measured in Biochemical System Using Plate Reader - 2147-01_Inhibitor_Dose_CherryPick_Activity.; format: functional, Mycobacterium tuberculosis H37Rv
T3 sequence (P9WQ59 whole entry): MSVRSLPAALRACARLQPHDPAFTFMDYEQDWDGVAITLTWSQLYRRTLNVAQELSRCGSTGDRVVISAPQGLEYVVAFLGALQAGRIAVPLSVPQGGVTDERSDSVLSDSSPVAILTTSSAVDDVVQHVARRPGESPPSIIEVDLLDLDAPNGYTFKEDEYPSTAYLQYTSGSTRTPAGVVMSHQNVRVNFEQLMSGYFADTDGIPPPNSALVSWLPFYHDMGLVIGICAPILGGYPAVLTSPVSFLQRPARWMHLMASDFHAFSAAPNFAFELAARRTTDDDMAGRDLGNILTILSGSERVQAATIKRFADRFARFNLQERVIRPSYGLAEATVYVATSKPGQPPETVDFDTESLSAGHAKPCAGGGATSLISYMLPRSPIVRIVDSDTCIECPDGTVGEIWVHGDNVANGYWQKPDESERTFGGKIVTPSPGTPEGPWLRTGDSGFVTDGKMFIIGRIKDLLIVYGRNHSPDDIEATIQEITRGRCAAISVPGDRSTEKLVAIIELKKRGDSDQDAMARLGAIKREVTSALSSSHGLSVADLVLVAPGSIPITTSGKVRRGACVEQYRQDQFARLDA

Protein Wnt-3a = Protein Wnt-3a (Mus musculus, UniProt P27467); assay: Wnt3a-driven reporter signaling inhibition, dose response, selectivity assay for Gli-SUFU antagonist project, Wnt-LIGHT cells, luminescence (AID 651570); format: functional; conditions: read-out: IC50_Mean;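 note: Wnt-LIGHT reporter cells stimulated with conditioned medium from Wnt3a-producing cells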
Sequence of Protein Wnt-3a (P27467 whole entry): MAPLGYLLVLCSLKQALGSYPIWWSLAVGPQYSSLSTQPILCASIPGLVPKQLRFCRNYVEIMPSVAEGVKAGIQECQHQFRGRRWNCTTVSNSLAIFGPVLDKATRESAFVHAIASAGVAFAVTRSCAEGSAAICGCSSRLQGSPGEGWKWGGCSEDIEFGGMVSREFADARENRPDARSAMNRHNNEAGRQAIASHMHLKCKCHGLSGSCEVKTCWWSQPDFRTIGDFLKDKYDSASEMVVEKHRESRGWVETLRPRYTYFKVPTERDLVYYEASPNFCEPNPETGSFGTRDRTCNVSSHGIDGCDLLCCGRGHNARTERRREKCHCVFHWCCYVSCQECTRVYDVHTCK

[8] = Shn3 3'UTR reporter inhibitors, dose response, cell-based, Clone20 osteoblasts, firefly luciferase, cherry-picked (AID 624132); format: functional;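 note: firefly luciferase luminescence from reporter carrying the Shn3 3'UTR in osteoblasts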
[9] = control 3'UTR Renilla luciferase suppression, dose response, counter-screen for Shn3 inhibitor project, cell-based, Clone20-Shn3RL, cherry-picked (AID 624133); format: functional
[10] = intracellular Trypanosoma cruzi inhibitors in host cells – cell-based, plate reader, cherry-pick samples, set 3, dose response (AID 651818); format: functional;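 note: compounds incubated with infected cells for about four days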
Genome polyprotein = Genome polyprotein (dengue virus type 2, UniProt P29990); assay: Dengue-2 NS5 methyltransferase inhibitors, primary screen, biochemical, confirmation dose response (AID 588689); format: functional
Sequence of Genome polyprotein (P29990 2492-3391 limits assumed): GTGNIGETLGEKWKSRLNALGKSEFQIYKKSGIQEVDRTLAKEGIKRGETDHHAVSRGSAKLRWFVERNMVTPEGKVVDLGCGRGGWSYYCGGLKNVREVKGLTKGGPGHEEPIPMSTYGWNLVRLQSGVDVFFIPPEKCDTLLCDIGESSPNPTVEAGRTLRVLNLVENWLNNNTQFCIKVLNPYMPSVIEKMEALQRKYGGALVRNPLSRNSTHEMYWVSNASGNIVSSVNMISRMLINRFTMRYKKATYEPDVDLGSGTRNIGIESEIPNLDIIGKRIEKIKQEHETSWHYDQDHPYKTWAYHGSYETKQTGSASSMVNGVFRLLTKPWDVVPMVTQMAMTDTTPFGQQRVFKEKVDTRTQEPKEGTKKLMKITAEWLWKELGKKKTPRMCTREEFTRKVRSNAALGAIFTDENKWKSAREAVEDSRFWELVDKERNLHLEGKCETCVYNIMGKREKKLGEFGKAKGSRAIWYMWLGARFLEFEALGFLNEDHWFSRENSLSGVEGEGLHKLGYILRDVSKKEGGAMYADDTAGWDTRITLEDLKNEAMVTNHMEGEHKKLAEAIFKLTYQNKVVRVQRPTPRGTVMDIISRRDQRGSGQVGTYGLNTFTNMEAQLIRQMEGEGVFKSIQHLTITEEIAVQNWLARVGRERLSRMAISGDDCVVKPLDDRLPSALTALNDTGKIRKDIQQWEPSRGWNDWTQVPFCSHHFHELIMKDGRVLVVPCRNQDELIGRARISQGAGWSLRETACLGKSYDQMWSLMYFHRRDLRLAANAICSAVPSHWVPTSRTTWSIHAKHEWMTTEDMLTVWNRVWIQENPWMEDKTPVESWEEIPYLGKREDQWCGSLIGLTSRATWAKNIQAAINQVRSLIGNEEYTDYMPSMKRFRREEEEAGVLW

[11] = C. albicans growth with fluconazole, confirmation, fluorescence, retest (AID 2467); format: functional, cell-based
[12] = NIH-3T3 fibroblast cytotoxicity, dose response, cytotoxicity control, cell-based, fluorescence, Alamar Blue, secondary assay (AID 2327); format: functional;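 note: NIH-3T3 mouse fibroblasts cultured with fluconazole at 8 µg/mL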
[13] = biological target: T4, Corticotropin-releasing factor receptor 2/Corticotropin-releasing factor-binding protein (Homo sapiens, UniProt P24387+Q13324); assay: activators of CRF receptor 2 with binding protein – uHTS hits, confirmation (AID 602473); format: functional; conditions: read-out: EC50_Mean
T4 sequence (Q13324 whole entry): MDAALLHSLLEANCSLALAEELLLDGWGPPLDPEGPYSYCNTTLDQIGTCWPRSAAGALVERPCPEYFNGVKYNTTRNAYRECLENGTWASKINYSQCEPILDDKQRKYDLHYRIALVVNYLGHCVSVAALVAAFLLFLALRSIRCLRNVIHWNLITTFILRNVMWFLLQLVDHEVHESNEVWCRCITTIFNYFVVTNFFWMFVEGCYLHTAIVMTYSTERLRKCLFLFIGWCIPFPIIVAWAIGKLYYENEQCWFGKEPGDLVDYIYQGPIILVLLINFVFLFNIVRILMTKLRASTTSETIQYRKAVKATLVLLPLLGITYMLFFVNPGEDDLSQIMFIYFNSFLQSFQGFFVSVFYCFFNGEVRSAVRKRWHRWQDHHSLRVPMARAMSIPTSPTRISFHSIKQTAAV
T4 sequence (P24387 whole entry): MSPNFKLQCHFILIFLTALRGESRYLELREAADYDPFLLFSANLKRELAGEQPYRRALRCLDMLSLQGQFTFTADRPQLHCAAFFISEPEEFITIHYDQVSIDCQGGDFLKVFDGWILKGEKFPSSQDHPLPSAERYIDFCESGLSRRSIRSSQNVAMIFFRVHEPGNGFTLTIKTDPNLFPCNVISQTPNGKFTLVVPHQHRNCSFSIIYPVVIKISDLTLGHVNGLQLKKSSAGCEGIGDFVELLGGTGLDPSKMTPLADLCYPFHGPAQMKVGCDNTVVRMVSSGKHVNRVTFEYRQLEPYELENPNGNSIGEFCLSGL

SMILES: CC(=O)Nc1cc(-c2ccc(N3CCN(C)CC3)cc2)cn2c(-c3cccc(C(=O)N(C)C)c3)cnc12
- AC50 [1]: 8.58 µM (active)

SMILES: O=C(CSc1nc2ccccc2c(=O)n1-c1ccccc1)N1CCN(CCO)CC1
- AC50 [2]: 12.3 µM (active)

SMILES: C[C@@]12C(=O)N(CC3CCCO3)CC(=O)N1[C@H]1c3cc(Cl)ccc3OC[C@@H]1[C@@H]2c1ccccc1 (stereo not given in full)
- AC50 [3]: 2.52 µM (active)
- AC50 [4]: 1.34 µM (active)
- AC50 [5]: 2.05 µM (active)
- AC50 [6]: 2.64 µM (active)

SMILES: COc1cccc(NC(=O)CN(C)C(=O)c2ccc(S(=O)(=O)Nc3ccccc3C)cc2)c1
- AC50 [7]: > 100 µM (inactive)

SMILES: CCC(CC)CN1C(N(C)C)=NC[C@@H]1CC(C)C
- IC50 (Protein Wnt-3a): 5.72 µM (active)
- AC50 [8]: 0.717 µM (active)
- AC50 [9]: 1.84 µM (active)

SMILES: C[C@@H]1CN([C@@H](C)CO)C(=O)c2cccc(NC(=O)C3CCCCC3)c2O[C@@H]1CN(C)Cc1ccc(C(=O)Nc2ccccc2N)cc1
- AC50 [10]: 1.33 µM (active)

SMILES: CCCC[C@H](CN(N=O)[C@@H](Cc1ccccc1)CN(C)N=O)N(CCc1ccccc1)N=O
- AC50 [3]: 20.6 µM (active)
- AC50 [4]: 3.32 µM (active)
- AC50 [5]: 6.02 µM (active)
- AC50 [6]: 8.46 µM (active)

SMILES: CO[C@H]1CN(C)C(=O)c2ccc(NC(C)=O)cc2OC[C@@H](C)N(C(=O)c2ccc(F)cc2)C[C@H]1C
- AC50 [2]: 11.5 µM (active)

SMILES: CCN(CC)CCN(Cc1cc2cc3c(cc2nc1O)OCCO3)C(S)=NCCCN(C)C
- AC50 [1]: 12.9 µM (active)

SMILES: O=C(CSc1nc2c(c(=O)n1-c1ccccc1)SCC2)N1CCN(c2ccccc2)CC1
- AC50 [2]: 1.08 µM (active)

SMILES: N#CC1=C(N)N(c2ccccc2)C(c2ccco2)C1(C#N)C#N (stereo not given)
- AC50 [7]: > 100 µM (inactive)

SMILES: O=C(O)c1[nH]c2ccccc2c1C(c1ccccc1)c1c(C(=O)O)[nH]c2ccccc12
- AC50 [7]: 36.5 µM (active)
- IC50 (Genome polyprotein): 16.7 µM (active)

SMILES: C[N+]1(CC(=O)OC2CCCCCCCCCCC2)CCCC1
- IC50 (Protein Wnt-3a): 28 µM (inactive)
- EC50 [11]: 1.65 µM (active)
- EC50 [12]: > 150 µM (inconclusive)

SMILES: C[C@H](CO)N1C[C@H](C)[C@H](CN(C)C(=O)Nc2cccc3ccccc23)Oc2c(NC(=O)c3ccncc3)cccc2C1=O
- AC50 [10]: 3.57 µM (active)

SMILES: O=C(O)COc1ccccc1-c1nc(-c2ccccc2)c(-c2ccccc2)[nH]1
- AC50 [7]: > 100 µM (inactive)

SMILES: Cc1ccc(S(=O)(=O)Nc2ccc3c(c2)CC(=O)N([C@H](C)CO)C[C@@H](C)[C@@H](CN(C)S(=O)(=O)c2cccs2)O3)cc1
- AC50 [10]: 2.5 µM (active)

SMILES: C[C@H]1CN([C@@H](C)CO)C(=O)c2cccc(NC(=O)c3ccncc3)c2O[C@H]1CN(C)Cc1ccc(Cl)c(Cl)c1
- AC50 [10]: 0.08 µM (active)

SMILES: CC(C)Cc1ccc(C(C)C(=O)Nc2cccnc2)cc1 (stereo not given)
- IC50 (Protein Wnt-3a): 5.34 µM (active)
- EC50 [13]: > 53 µM (inactive)

SMILES: CO[C@H](C(=O)N(C)C[C@@H]1OCc2ccccc2-c2c(n(C)c3ccccc23)C(=O)N([C@H](C)CO)C[C@@H]1C)c1ccccc1
- AC50 [3]: 6.84 µM (active)
- AC50 [4]: 6.28 µM (active)
- AC50 [5]: 15.4 µM (active)
- AC50 [6]: 10.2 µM (active)

SMILES: COCCNC(=O)C[C@@H]1CC[C@@H]2[C@H](COc3ccc(NC(=O)Nc4cccc(F)c4)cc3C(=O)N2C)O1
- AC50 [2]: 4.17 µM (active)
